# Entries after “also recorded” stand apart in the source; their conditions may differ.
# What was measured:
# Nrf2 = conditions: old rats; cited from earlier work
# [1] = system: old female C57BL/6 (B6) mice; conditions: SFN gavage
# Text: (§1) Young (2-4 months) and old (19-22 mouths) female C57BL/6 (B6) mice were obtained from the Jackson Laboratory and the National Institute of Aging colony (Bethesda, Md.), respectively. Nrf2^+/+ and nrf2^−/− mice, which were initially obtained from Dr. Y. Kan (Chan and Kan, Proc Natl Acad Sci USA, 96:1231-6 (1997)), were backcrossed onto a C57BL/6 background for 7 generations.
# Oxazalone (OXA; 3%), dissolved in 100% ethanol, was applied on the shaved mouse abdomen on day 0. Control animals were exposed to vehicle alone. Six days after sensitization, mice were challenged on both sides of both ears by means of epicutaneous application of 20 μL of a 1% OXA solution (Gaspari and Katz, Current Protocols in immunology, John Wiley & Sons (Hoboken, N.J., 2003)). 2,4-Dinitro-1-fluambenzene (DNFB) sensitization was accomplished by the application of 0.5% of the chemical dissolved in 4:1 acetone/olive oil onto the shaved abdomen (days 0 and 1). On day 5, mice were challenged by means of epicutaneous application of 0.2% DNFB on both ears. Ear thickness was measured before and 24 and 48 hours after challenge by using a dial thickness gauge (Mitutoyo, Japan). Mice were killed 48 hours after challenge, and ear tissues were removed for RNA extraction and cytokine message expression, as well as for hematoxylin and eosin staining. […]
# IFN-γ mRNA = conditions: old mice; SFN gavage; 48 hours after DNFB challenge
# Protocol: (§2) Oxazalone (OXA; 3%), dissolved in 100% ethanol, was applied on the shaved mouse abdomen on day 0. Control animals were exposed to vehicle alone. Six days after sensitization, mice were challenged on both sides of both ears by means of epicutaneous application of 20 μL of a 1% OXA solution (Gaspari and Katz, Current Protocols in immunology, John Wiley & Sons (Hoboken, N.J., 2003)). 2,4-Dinitro-1-fluambenzene (DNFB) sensitization was accomplished by the application of 0.5% of the chemical dissolved in 4:1 acetone/olive oil onto the shaved abdomen (days 0 and 1). On day 5, mice were challenged by means of epicutaneous application of 0.2% DNFB on both ears. Ear thickness was measured before and 24 and 48 hours after challenge by using a dial thickness gauge (Mitutoyo, Japan). Mice were killed 48 hours after challenge, and ear tissues were removed for RNA extraction and cytokine message expression, as well as for hematoxylin and eosin staining.
# (§3) Total RNA was extracted from DCs or tissues by using the RNeasy Mini Kit (Qiagen, Inc, Valencia, Calif.), according to the manufacturer's recommendations. Contaminating DNA was removed with a DNA-free kit (Ambion, Inc, Austin, Tex.). Total RNA was spectrophotometrically quantitated. A 1 μg RNA sample was reverse transcribed by using the iScriptTMcDNA Synthesis Kit (Bio-Rad Laboratories, Hercules, Calif.). The cDNA templates were stored at −40° C.
# (§4) PCR was carried out with an iQTM SYBR Green Supermix (Bio-Rad Laboratories) by using an iCycler (Bio-Rad Laboratories), according to the manufacturer's instructions. The sequences for the primers for IFN-γ, IL-4, T-bet, heme oxygenase 1, Nrf2, NQO1, glutathione S-transferase, GCLS, GPx, and β-actin are summarized in Table 1. The final PCR mixture contained 1 μL of cDNA template and 400 nM of the forward and reverse primers in a final volume of 25 μL. […]
# (§5) IFN-γ and IL-4 message levels were measured in the ear tissues that were taken 48 hours after challenge to determine whether the induction of the CHS response is accompanied by polarized T cell differentiation.
# IL-4 mRNA = conditions: old mice; SFN gavage; 48 hours after DNFB challenge
# Protocol: as §2, §3, §4, §5
# T-bet mRNA = conditions: old versus young sensitized animals; SFN gavage; DNFB challenge
# Protocol: as §2, §3, §4, §5
# GATA-3 = conditions: SFN gavage; DNFB challenge
# Protocol: as §5
# [2] = system: p2Es (NQO1, glutathione S-transferase, γ-GCLS, and GPx) mRNA; conditions: SFN administration versus livers of control animals
# Protocol: (§6) SFN (9 μmol/d per mouse) in 0.2 mL, of corn oil was administered by means of gavage on consecutive days. The control group received corn oil alone. Pretreatment with SFN or corn oil commenced 5 days before and was carried through until the performance of the antigen challenge (i.e., 11 days total).
# as §3
# as §4, with “μL. Samples were run concurrently with a standard curve prepared from the PCR products. Serial dilutions were performed to obtain appropriate template concentrations.” for “μL.”
# [3] = SFN administration by gavage
# Protocol: as §1, §6
# BM-DCs from old mice = assay: CHS response by adoptive transfer of DNBS-pulsed BM-DCs treated ex vivo; type: in vivo, mouse; conditions: DNFB challenge of young recipients
# Protocol: For sensitization (day 0), 0.5×10^6 DNBS-treated DCs were injected subcutaneously with 100 μL of saline into the flanks of recipient mice. Five days later, mice were challenged by means of DNFB application to the ear. Mice injected with the same number of unmodified DCs or mock treated and challenged with vehicle alone served as negative controls.
# NQO1 mRNA = conditions: BM-DCs from old animals; SFN 5 μmol/L for 24 hours; P<0.001
# Protocol: (§7) FIG. 9. […] A. Total RNA was extracted from CD11c^+ BM-DCs to perform real-time PCR for p2E.
# as §3
# (§8) PCR was carried out with an iQTM SYBR Green Supermix (Bio-Rad Laboratories) by using an iCycler (Bio-Rad Laboratories), according to the manufacturer's instructions. The sequences for the primers for IFN-γ, IL-4, T-bet, heme oxygenase 1, Nrf2, NQO1, glutathione S-transferase, GCLS, GPx, and β-actin are summarized in Table 1. The final PCR mixture contained 1 μL of cDNA template and 400 nM of the forward and reverse primers in a final volume of 25 μL. Samples were run concurrently with a standard curve prepared from the PCR products. Serial dilutions were performed to obtain appropriate template concentrations. B-Actin was used as a reference gene for the recovery of RNA, as well as reverse transcription efficiency. Melting curve analysis was used to confirm specific replicon formation.
# heme oxygenase 1 mRNA = conditions: BM-DCs from old animals; SFN 5 μmol/L for 24 hours; P<0.05
# Protocol: as §7, §3, §8
# γ-GCLS mRNA = conditions: BM-DCs from old animals; SFN 5 μmol/L for 24 hours; P<0.05
# Protocol: as §7, §3, §8
# [4] = system: Nrf2-mediated phase II enzyme (p2E) gene expression; conditions: absent in Nrf2-deficient animals; recent studies; cited from earlier work
# CD11c+ BM-DCs = assay: MBB staining and flow cytometry of cellular thiol in BM-DCs; conditions: P<0.05
# OXA-treated BALB/c mice = conditions: Särnstrand et al.; cited from earlier work
# BALB/c mice = conditions: orally administered 1.6 g/kg, Senaldi et al.; cited from earlier work
# cellular proteins = conditions: NAC at the time of TNCB sensitization; Bruchhausen et al.; cited from earlier work
smiles,measurement,setting,value
O=C(O)CCCCC1CCSS1 (stereo not drawn) [α-lipoic acid],"nuclear Nrf2 levels, γ-CLC expression and GSH production",Nrf2,increase nuclear Nrf2 levels in parallel with increased γ-CLC expression and GSH production
"C[S+]([O-])CCCCN=C=S (centres unmarked) [SFN, sulforaphane]",ear-swelling response in nonsensitized (control) animals,[1]; nonsensitized control animals,no effect
same,decrease in lymphocyte infiltration and intercellular edema in ear (hematoxylin and eosin),"[1]; old mice, ear histology 48 hours after challenge",could be reversed
same,IFN-γ message level in ear tissue,IFN-γ mRNA,significantly increased
same,IL-4 message level in ear tissue,IL-4 mRNA,not significantly affected
same,T-bet message level in ear tissue,T-bet mRNA,prevented this decrease to a significant degree
same,expression of GATA-3,GATA-3,Neither aging nor SFN treatment had an effect
same,"p2E mRNA levels in liver (NQO1, glutathione S-transferase, γ-GCLS, GPx)",[2],message levels for 3 of the 4 genes were increased
same,effects on overall well-being or body weight,[3],Neither the CHS procedure nor SFN administration had any effects
same,CHS response in recipients of DNBS-pulsed DCs from old animals,BM-DCs from old mice; ex vivo SFN treatment of BM-DCs (5 μM for 24 hours),could restore the CHS response; also recorded: reverses the age-related decrease in the CHS response
same,NQO1 mRNA level,NQO1 mRNA,significant upregulation
same,heme oxygenase 1 mRNA level,heme oxygenase 1 mRNA,significant upregulation
same,γ-GCLS mRNA level,γ-GCLS mRNA,significant upregulation
same,Nrf2-mediated phase II enzyme (p2E) gene expression,[4],significantly activates
same,increase in cellular thiol levels (MBB staining),"CD11c+ BM-DCs; BM-DCs from old animals, SFN 5 μmol/L for 24 hours",15%
"CC(=O)N[C@@H](CS)C(=O)O [NAC, N-acetylcysteine]",CHS response in recipients of DNBS-pulsed DCs from old animals,"BM-DCs from old mice; ex vivo NAC treatment of BM-DCs (20 mM for 1 hour), washed",restored the CHS response; also recorded: increases the CHS response; also recorded: reverses the age-related decrease in the CHS response
same,ear thickness,OXA-treated BALB/c mice,dose-dependent increase
same,TNCB response,BALB/c mice,reduced the TNCB response
same,binding of the contact sensitizer TNCB to cellular proteins,cellular proteins,block the binding
same,increase in cellular thiol content (MBB staining),"CD11c+ BM-DCs; BM-DCs, NAC exposure (FIG. 8: 20 mmol/L for 24 hours)",25%

# Reference: US20130344106A1, “Methods and Compositions for Improving Immune Response by a Nutraceutical Antioxidant” (priority 2008, published 2013)
